Values after ≈ are worked out from the molar mass of the structure shown.
System: not listed separately
Assay: in vitro
Conditions: dog, MDCK cells, TI
Description: Therapeutic index, ratio of TC50 for MDCK cells to IC50 for antiviral activity against influenza A virus (A/Hanfang/359/95(H3N2))
Work on `NC(=O)c1ncn([C@@H]2O[C@H](CO)[C@@H](O)[C@H]2O)n1` [RIBAVIRIN] yielded a selectivity ratio of 771. `COC1=CC(=O)c2ccc(=O)oc2[C@]12[C@H](c1c(OC)cc(OC)c3ccc(=O)oc13)[C@H]1[C@H](c3c(OC)cc(OC)c4ccc(=O)oc34)C=C(C)C[C@]1(C)C[C@@H]2C=C(C)C` gave a selectivity ratio of 7.9. Work on `COC1=CC(=O)c2ccc(=O)oc2[C@@]12[C@H](C=C(C)C)C[C@]1(C)CC(C)=C[C@H](c3c(OC)cc(OC)c4ccc(=O)oc34)[C@H]1[C@@H]2c1c(OC)cc(OC)c2ccc(=O)oc12` yielded a selectivity ratio of 6.9. Work on `COC1=CC(=O)c2ccc(=O)oc2[C@]12[C@H](C=C(C)C)C[C@]1(C)CC(C)=C[C@H](c3c(OC)cc(OC)c4ccc(=O)oc34)[C@H]1[C@@H]2c1c(OC)cc(OC)c2ccc(=O)oc12` yielded a selectivity ratio of 3.3. `COC1=CC(=O)c2ccc(=O)oc2[C@@]12[C@H](c1c(OC)cc(OC)c3ccc(=O)oc13)[C@H]1[C@H](c3c(OC)cc(OC)c4ccc(=O)oc34)C=C(C)C[C@]1(C)C[C@@H]2C=C(C)C` gave a selectivity ratio of 1.9.

System: Influenza A virus
Assay: microbe, parasite or virus in culture
Conditions: H3N2, MDCK
Description: Antiviral activity against influenza A virus (A/Hanfang/359/95(H3N2)) infected in MDCK cells
`NC(=O)c1ncn([C@@H]2O[C@H](CO)[C@@H](O)[C@H]2O)n1` [RIBAVIRIN] showed an IC50 of 6.19 µM. For `COC1=CC(=O)c2ccc(=O)oc2[C@]12[C@H](c1c(OC)cc(OC)c3ccc(=O)oc13)[C@H]1[C@H](c3c(OC)cc(OC)c4ccc(=O)oc34)C=C(C)C[C@]1(C)C[C@@H]2C=C(C)C`, the IC50 was 8.62 µM. In the case of `COC1=CC(=O)c2ccc(=O)oc2C12C(C=C(C)C)CC1(C)CC(C)=CC(c3c(OC)cc(OC)c4ccc(=O)oc34)C1C2c1c(OC)cc(OC)c2ccc(=O)oc12` (racemic; form 1), the IC50 is reported as 3.13 µM. Compound `COC1=CC(=O)c2ccc(=O)oc2[C@@]12[C@H](C=C(C)C)C[C@]1(C)CC(C)=C[C@H](c3c(OC)cc(OC)c4ccc(=O)oc34)[C@H]1[C@@H]2c1c(OC)cc(OC)c2ccc(=O)oc12` has an IC50 of 11.1 µM. `COC1=CC(=O)c2ccc(=O)oc2[C@]12[C@H](C=C(C)C)C[C@]1(C)CC(C)=C[C@H](c3c(OC)cc(OC)c4ccc(=O)oc34)[C@H]1[C@@H]2c1c(OC)cc(OC)c2ccc(=O)oc12` gave an IC50 of 17.5 µM. `COC1=CC(=O)c2ccc(=O)oc2[C@@]12[C@H](c1c(OC)cc(OC)c3ccc(=O)oc13)[C@H]1[C@H](c3c(OC)cc(OC)c4ccc(=O)oc34)C=C(C)C[C@]1(C)C[C@@H]2C=C(C)C` showed an IC50 of 9.86 µM.

System: Enterococcus faecalis
Assay: Antibacterial activity against Enterococcus faecalis
Type: functional
Conditions: not given
Compound `CC(C)=CCC[C@]1(C)OC2=C(Cl)C(=O)C=C[C@@]23CC(=C(C)C)C[C@@H]13` has an MIC greater than 64 µg/mL. Compound `COc1cc(O)cc2c1C(=O)C(Cl)=C1O[C@@](C)(CCC=C(C)C)[C@@H]3CC(=C(C)C)C[C@@]123` has an MIC greater than 64 µg/mL. In the case of `CC(C)=CCC[C@]1(C)OC2=C(Cl)C(=O)c3c(O)cc(O)cc3[C@@]23CC(=C(C)C)C[C@@H]13`, the MIC is reported as 1 µg/mL (≈ 2.33 µM).

System: not listed separately
Assay: Inhibition of yeast pre-mRNA splicing
Set-up: species or system Saccharomyces cerevisiae
Conditions: not given
Compound `COC1=CC2(C=CC1=O)CCC(=O)O2` (stereo unspecified) has an IC50 of 3000 µM. With `Cc1ccc(S(=O)(=O)NC2CC3(C=CC(=O)C(NC(=O)c4ccccc4)=C3)OC2=O)cc1` (stereo unspecified) the IC50 was 700 µM. With `CC(=O)NC1=CC2(C=CC1=O)CC(NS(=O)(=O)c1ccc(C)cc1)C(=O)O2` (stereo unspecified) the IC50 was 1700 µM. In the case of `CC(=O)NC1=CC2(C=CC1=O)CCC(=O)O2` (stereo unspecified), the IC50 is reported as 800 µM. With `O=C1CCC2(C=CC(=O)C(NC(=O)c3ccccc3)=C2)O1` (stereo unspecified) the IC50 was 600 µM.

System: Streptococcus pneumoniae
Assay: Antibacterial activity against Streptococcus pneumoniae
Type: functional
Conditions: not given
`CC(C)=CCC[C@]1(C)OC2=C(Cl)C(=O)C=C[C@@]23CC(=C(C)C)C[C@@H]13` gave an MIC greater than 64 µg/mL. `COc1cc(O)cc2c1C(=O)C(Cl)=C1O[C@@](C)(CCC=C(C)C)[C@@H]3CC(=C(C)C)C[C@@]123` showed an MIC greater than 64 µg/mL. Compound `CC(C)=CCC[C@]1(C)OC2=C(Cl)C(=O)c3c(O)cc(O)cc3[C@@]23CC(=C(C)C)C[C@@H]13` has an MIC of 8 µg/mL (≈ 18.6 µM).

System: not listed separately
Assay: (§1) Cytotoxicity against MDCK cells
Type: toxicity, cell-based, Canis lupus familiaris
Conditions: dog, MDCK cells; read-out: TC50 (the source's name)
Compound `NC(=O)c1ncn([C@@H]2O[C@H](CO)[C@@H](O)[C@H]2O)n1` [RIBAVIRIN] has a CC50 of 4770 µM. `COC1=CC(=O)c2ccc(=O)oc2[C@]12[C@H](c1c(OC)cc(OC)c3ccc(=O)oc13)[C@H]1[C@H](c3c(OC)cc(OC)c4ccc(=O)oc34)C=C(C)C[C@]1(C)C[C@@H]2C=C(C)C` gave a CC50 of 77.6 µM. For `COC1=CC(=O)c2ccc(=O)oc2[C@@]12[C@H](C=C(C)C)C[C@]1(C)CC(C)=C[C@H](c3c(OC)cc(OC)c4ccc(=O)oc34)[C@H]1[C@@H]2c1c(OC)cc(OC)c2ccc(=O)oc12`, the CC50 was 77.6 µM. `COC1=CC(=O)c2ccc(=O)oc2[C@]12[C@H](C=C(C)C)C[C@]1(C)CC(C)=C[C@H](c3c(OC)cc(OC)c4ccc(=O)oc34)[C@H]1[C@@H]2c1c(OC)cc(OC)c2ccc(=O)oc12` gave a CC50 of 57.7 µM. `COC1=CC(=O)c2ccc(=O)oc2[C@@]12[C@H](c1c(OC)cc(OC)c3ccc(=O)oc13)[C@H]1[C@H](c3c(OC)cc(OC)c4ccc(=O)oc34)C=C(C)C[C@]1(C)C[C@@H]2C=C(C)C` showed a CC50 of 19.2 µM.

System: MDCK
Assay: as §1
Type: toxicity, cell-based, Canis lupus familiaris
Conditions: dog, mdck; read-out: TC50 (the source's name)
With `COC1=CC(=O)c2ccc(=O)oc2C12C(C=C(C)C)CC1(C)CC(C)=CC(c3c(OC)cc(OC)c4ccc(=O)oc34)C1C2c1c(OC)cc(OC)c2ccc(=O)oc12` (racemic; form 1) the CC50 was 6.42 µM.

System: Staphylococcus aureus
Assay: Antibacterial activity against Staphylococcus aureus
Type: functional
Conditions: not given
With `C/C(=C\C=C/[C@@H](C)/C=C(\C)C(=O)C1[C@@H]2[C@@H](CC(C)C)C(=O)N[C@@]23C[C@]1(O)c1cc(O)c(C)cc1C3=O)C(=O)O` (stereo partly specified) the MIC was 31.2 µg/mL (≈ 58.2 µM). For `CC(C)=CCC[C@]1(C)OC2=C(Cl)C(=O)C=C[C@@]23CC(=C(C)C)C[C@@H]13`, the MIC was greater than 64 µg/mL. Work on `CC1=C/[C@@H](C)/C=C(\C)[C@]2(O)[C@H](C)[C@@H]3[C@@H](C(C)C)C(=O)N[C@]34C(=O)c3cc(C)c(O)c(c3C(=O)[C@@H]42)C(=O)\C(C)=C\1` yielded an MIC of 31.2 µg/mL (≈ 58.7 µM). Compound `COc1cc(O)cc2c1C(=O)C(Cl)=C1O[C@@](C)(CCC=C(C)C)[C@@H]3CC(=C(C)C)C[C@@]123` has an MIC greater than 64 µg/mL. `C/C1=C/[C@@H](C)/C=C(\C)C(=O)[C@@H](C)[C@@H]2[C@@H](C)C(=O)N[C@@]23C[C@]24O[C@](C)(C(=O)c5c(O)c(C)cc(c52)C3=O)C14` (stereo partly specified) gave an MIC of 62.5 µg/mL (≈ 124 µM). With `CC(C)=CCC[C@]1(C)OC2=C(Cl)C(=O)c3c(O)cc(O)cc3[C@@]23CC(=C(C)C)C[C@@H]13` the MIC was 1 µg/mL (≈ 2.33 µM).

Target: DNA polymerase alpha catalytic subunit (Homo sapiens, UniProt P09884)
Sequence (P09884 whole entry): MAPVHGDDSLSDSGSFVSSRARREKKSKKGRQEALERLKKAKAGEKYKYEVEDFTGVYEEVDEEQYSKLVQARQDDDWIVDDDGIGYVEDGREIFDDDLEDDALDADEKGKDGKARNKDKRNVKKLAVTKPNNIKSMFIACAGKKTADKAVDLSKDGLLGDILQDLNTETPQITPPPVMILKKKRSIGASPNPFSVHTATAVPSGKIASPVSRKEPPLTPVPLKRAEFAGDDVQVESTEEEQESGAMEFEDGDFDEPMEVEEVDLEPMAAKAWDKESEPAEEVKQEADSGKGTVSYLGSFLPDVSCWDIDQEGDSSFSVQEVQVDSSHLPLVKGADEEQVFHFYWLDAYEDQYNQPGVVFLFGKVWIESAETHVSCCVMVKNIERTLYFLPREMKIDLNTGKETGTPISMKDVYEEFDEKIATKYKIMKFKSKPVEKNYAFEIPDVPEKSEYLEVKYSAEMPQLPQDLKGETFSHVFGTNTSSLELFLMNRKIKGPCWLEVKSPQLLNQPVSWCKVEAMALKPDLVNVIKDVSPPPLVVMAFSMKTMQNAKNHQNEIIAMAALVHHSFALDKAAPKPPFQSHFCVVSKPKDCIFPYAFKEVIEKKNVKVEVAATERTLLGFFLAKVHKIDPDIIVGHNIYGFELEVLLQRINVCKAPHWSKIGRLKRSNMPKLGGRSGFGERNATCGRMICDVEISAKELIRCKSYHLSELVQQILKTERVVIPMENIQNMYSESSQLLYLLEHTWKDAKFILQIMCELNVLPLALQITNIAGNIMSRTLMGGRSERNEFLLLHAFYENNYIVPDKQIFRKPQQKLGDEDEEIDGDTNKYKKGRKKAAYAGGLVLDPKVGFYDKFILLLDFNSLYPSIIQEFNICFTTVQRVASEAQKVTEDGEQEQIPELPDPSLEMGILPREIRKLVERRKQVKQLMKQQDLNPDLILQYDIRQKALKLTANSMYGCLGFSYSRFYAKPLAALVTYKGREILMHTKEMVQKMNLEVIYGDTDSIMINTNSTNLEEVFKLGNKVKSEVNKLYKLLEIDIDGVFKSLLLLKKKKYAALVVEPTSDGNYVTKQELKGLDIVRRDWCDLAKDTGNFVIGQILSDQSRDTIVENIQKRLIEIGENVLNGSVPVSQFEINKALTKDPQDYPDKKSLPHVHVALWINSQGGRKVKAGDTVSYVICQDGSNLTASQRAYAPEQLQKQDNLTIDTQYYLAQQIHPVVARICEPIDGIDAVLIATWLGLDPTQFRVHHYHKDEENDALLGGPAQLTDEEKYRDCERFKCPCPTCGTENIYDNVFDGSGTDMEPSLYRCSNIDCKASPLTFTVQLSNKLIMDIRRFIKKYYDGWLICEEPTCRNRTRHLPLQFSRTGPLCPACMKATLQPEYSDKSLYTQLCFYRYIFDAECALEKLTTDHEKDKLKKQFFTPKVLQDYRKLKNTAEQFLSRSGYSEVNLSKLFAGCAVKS
Assay: Inhibition of DNA polymerase alpha (unknown origin)
Conditions: not given
Compound `COc1cc(OC(C)=O)c2c(c1)C1(C=C(OC(C)=O)C(=O)C=C1C)OC2=O` (stereo unspecified) has an IC50 of 0.68 µM. Work on `COc1cc(O)c2c(c1)C1(C=C(OC(C)=O)C(=O)C=C1C)OC2=O` (stereo unspecified) yielded an IC50 of 28 µM.
